Results: patent publication US10653672B2, “Myogenesis promotor, muscle atrophy inhibitor, medical composition and TAZ activator” (National University Corporation Tokyo Medical and Dental …, priority 2014, dated 2020)
Where “and” joins values, the source holds several entries; their conditions need not be identical. Equal entries are not always repeated.

What was measured:
A431 cells = test: Immunoblotting of EMT markers in A431 cells; format: cell-based
Procedure: (1) A431 cells, (epidermoid carcinoma), A549 cells (adenocarcinomic human alveolar basal epithelial cell) and HCT116 cells (human colon cancer) were treated with IBS008738 or DMSO, respectively, and evaluated by immunoblotting.
HEK293, A431, A549, HCT116, MCF7 and SW480 cells were cultured in Dulbecco's Modified Eagle Medium (DMEM) containing 10% fetal bovine serum (FBS), 10 mM HEPES-NaOH at pH 7.4, 100 U/ml penicillin and 100 mg/I streptomycin under 5% CO2 at 37° C.

[1] = system: connective tissue growth factor (CTGF); test: Quantitative real-time PCR, CTGF; format: cell-based, mouse; details: C2C12 cells, 10 μM; for Normarized mRNA abundance, CTGF: listed as IBS008738
Procedure: (§1) (1) Quantitative real-time PCR was performed with C2C12 cells immediately before the induction of muscle formation (0 h), and after culturing under differentiation condition in a culture medium added with IBS008738 or DMSO at a concentration of 10 μM for 24 hours (24 h) and 72 hours (72 h), respectively. […] The line and error bar indicate the average value and the standard error, **p<0.05, and ns refers to not significant.
(§2) (2) Evaluation was also performed under the same condition on the connective tissue growth factor (CTGF) and cyclin D1, as TAZ targets in epidermal cells.
(§3) The quantitative real-time PCR was performed with SYBER Green (Roche) and ABI7500 Realtime PCR system (Applied Biosystems).

cyclin D1 = test: Quantitative real-time PCR, cyclin D1; format: cell-based, mouse; details: C2C12 cells, 10 μM; for Normarized mRNA abundance, CyclinD1: listed as IBS008738
Procedure: as §1, §2, §3

C2C12 cells = test: Anti-MHC immunostaining of differentiating C2C12 cells; format: cell-based, mouse
Procedure: (2) To a culture medium in which C2C12 cells were grown to confluence under growth condition, IBS008738 or DMSO was added. The C2C12 cells were fixed immediately after the addition of IBS008738 or DMSO, and at 24 hours, 48 hours or 72 hours after the addition of IBS008738 or DMSO under differentiation condition. The fixed C2C12 cells were immunostained with anti-MHC antibody. The cell nuclei were visualized with Hoechst 33342.
(3) C2C12 cells were grown under growth condition for 24 hours in a culture medium with IBS008738 or DMSO at a concentration of 10 μM, respectively, and switched to differentiation condition to continue the cultivation. The C2C12 cells were fixed immediately after the completion of cultivation under growth condition, and at 24 hours, 48 hours and 72 hours after the switching to differentiation condition, respectively.
C2C12 cells were passaged in a growth medium (DMEM containing 10% FBS) and differentiated in a differentiation medium (DMEM containing 2% horse serum (Invitrogen)).

[2] = system: association of TEAD with CTGF; test: Chromatin immunoprecipitation, TEAD on CTGF promoter; format: cell-based, mouse; details: C2C12 cells; 10 μM; differentiation condition 24 hours; protein G sepharose without antibody; listed as IBS008738
Procedure: (1) Chromatin immunoprecipitation of MyoD, TEAD and Pax3 was performed on C2C12 cells that were cultured under differentiation condition for 24 hours in a culture medium added with IBS008738 or DMSO at a concentration of 10 μM. Myogenin, connective tissue growth factor (CTGF) and MyfS were detected by PCR, respectively. The immunoprecipitation with protein G sepharose was used as a control (Mock ChIP). […] The line and the error bar in the figure indicate the average value and the standard error, *p<0.05, ***p<0.001, ns refers to not significant.
The Chromatin immunoprecipitation was performed according to the following process. C2C12 cells were cultured to confluence, and then treated with IBS008738 or DMSO at a concentration of 10 μM in a differentiation medium for 24 hours. The cells were crosslinked in 1.42% (v/v) formaldehyde for 15 minutes, and the reaction was quenched by treating with 125 mM glycine for 5 minutes. […] Shearing was analyzed by agarose gel electrophoresis. […] The immunoprecipitated DNA fragments were isolated using Chelex-100 resin and diluted by 1:2.5 for quantitative PCR analysis. Input normalized relative abundance was determined.

calpain 1 = test: Quantitative real-time PCR, calpain 1; format: cell-based, mouse; details: C2C12 cells, 10 μM; for Normarized mRNA abundance, Calpain1: listed as IBS008738
Procedure: as §1
Evaluation was also performed under the same condition on M-cadherin, calpain 1 and caveolin 3, which are myofusion markers. As a result, there was no increase in the degree of gene transcription in the case with IBS008738.
as §3

TAZ = test: Localization of TAZ in the cell by cell fraction; format: cell-based, mouse; details: C2C12 cells, 24 hours under differentiation condition
Procedure: Phosphorylation of TAZ and its localization in the cell are important factors in controlling the activity of TAZ. The localization of TAZ in the cell was examined by performing cell fraction of C2C12 cells after being cultured for 24 hours under differentiation condition in a medium added with IBS008738 or DMSO.

## Cc1ccc(-n2cnc(/N=C/N3CCOCC3)c2C(=O)c2ccccc2)cc1 [exemplary compound 1]
A431 cells
  EMT markers (fibronectin, E-cadherin, N-cadherin and vimentin) compared with DMSO: no significant difference
[1]; 24 h and 72 h
  gene transcription of CTGF compared with DMSO: no significant difference
[1]; differentiation condition 24 h
  Normarized mRNA abundance, CTGF: 0.32 and 0.30 and 0.25
[1]; differentiation condition 72 h
  Normarized mRNA abundance, CTGF: 1.76 and 2.01 and 2.04
Cyclin D1; 24 h and 72 h
  gene transcription of cyclin D1 compared with DMSO: no significant difference
Cyclin D1; differentiation condition 24 h
  Normarized mRNA abundance, CyclinD1: 0.95 and 0.83 and 0.78
Cyclin D1; differentiation condition 72 h
  Normarized mRNA abundance, CyclinD1: 0.62 and 0.60 and 0.61
C2C12 cells; 10 μM, 24 hours under growth condition, then differentiation condition up to 72 hours
  cell differentiation compared with DMSO: more developed
C2C12 cells; added at confluence, fixed at 0, 24, 48 or 72 hours under differentiation condition, anti-MHC antibody
  cell differentiation and MHC expression compared with DMSO: more significant
[2]
  Input %, CTGF-p, Mock ChIP: 0.06% and 0.04%
Calpain 1; 24 h and 72 h
  degree of gene transcription of calpain 1: no increase
Calpain 1; differentiation condition 24 h
  Normarized mRNA abundance, Calpain1: 0.84 and 0.81 and 0.98
Calpain 1; differentiation condition 72 h
  Normarized mRNA abundance, Calpain1: 1.15 and 1.18 and 1.22
TAZ
  effect on the localization of TAZ in the cell: no effect
